# Results as given in patent publication US20230047208A1, “RNA Splicing Modulation” (The General Hospital Corporation, priority 2020, published 2023).
# How the values were obtained:
# [1] = system: ELP1; test: In vivo ELP1 splicing correction in humanized transgenic mouse model
# [2] = system: CFTR c.2988G>A; test: CFTR exon 18 inclusion, RT-PCR in Flp-In-293 stable cells expressing c.2988G>A CFTR-EMG-i14-i18; assay type: cell-based, human; conditions: Flp-In-293 c.2988G>A, 60 μM, 5 days
# Method: HEK-293 cells stably transfected with the expression minigenes (EMGs) for the full-length coding sequence and flanking intron sequence of the Cystic Fibrosis Transmembrane Conductance Regulator (CFTR) (courtesy of Dr. Garry R. Cutting, Johns Hopkins University school of Medicine, Baltimore, Md.) were cultured in D-MEM supplemented with 10% FBS (FBS), 1% penicillin/streptomycin and 0.1 mg/mL Hygromycin (SIGMA).
# After treatment, the cells were collected and RNA was extracted with QIAzol Lysis Reagent (79306, Qiagen) following the manufacturer's instructions. The yields of the total RNA for each sample were determined using a Nanodrop ND-1000 spectrophotometer. […]
# Ratios between isoforms having the middle exon included or excluded were obtained using the integrated density value (IDV) for each correspondent band, and then assessed using Alpha 2000™ Image Analyzer and quantified by ImageJ software. The level of exon inclusion was calculated as previously described^4, where the relative density value of the band represents inclusion and is expressed as a percentage. Validation of the semi-quantitative RT-PCR method for the measurement of exon inclusion was performed using RT-qPCR^4. […]
# [3] = system: MLH1 c.1989 G>A, exon 17; test: MLH1 c.1989 G>A minigene exon 17 splicing in transfected cell lines; assay type: cell-based; conditions: 60 μM, 24 hours
# Description: FIGS. 4C-4F Upper row: The sequences at the 5′ splice site of Exon X in patient cells and minigene constructs are shown (FIGS. 4C-4F). The sequences around the 5′ splice site of Exon X are shown in LOGO plots, with the closely matched CNN motifs indicated beneath the plots. […] Middle row: RT-PCR experiments validated treatment responses in patient cell lines carrying specific splice site mutations. The upper bands indicate the isoform in which the middle Exon X is included while the lower bands indicate the isoform in which the middle Exon X is skipped. Each set of gels is one of the triplicates used to generate the bar plots beneath. […] The statistical significance, as shown in FIGS. 4C-4F, was determined via two-tailed, unpaired Student's test: *p<0.05; **p<0.01; ***p<0.001.
# In another example from Table 18, a minigene encompassing MLH1 exons 16 to 18 and flanking exon 17 intronic sequences, with the c.1989 G>A mutation was prepared. This mutation was predicted by SpliceA1 to cause skipping of exon 17 in the MLH1 gene. […] The c.1989 G>A mutation in MLH1 is associated with hereditary nonpolyposis colorectal cancer (HNPCC) or Lynch syndrome (MIM #120435). Individuals with MLH1 mutations also have an increased risk of cancers of the endometrium, ovaries, stomach, small intestine, liver, gallbladder duct, upper urinary tract, and brain^14-16,65. […]
# [4] = system: CFTR protein; test: CFTR western blot, mature CFTR protein in Flp-In-293 cells stably expressing c.2988G>A; assay type: cell-based, human; conditions: Flp-In-293 c.2988G>A stable cells, 60 μM, 5 days
# Method: For CFTR WB, 40 μg of protein lysate was separated on 7.5% Criterion TGX protein gel (BioRad) and transferred to a PVDF membrane using a Trans-Blot Turbo Transfer System (BioRad). After blocking in 5% non-fat dry milk (BioRad), the membrane was probed with mouse monoclonal anti-CFTR antibody (1:5000 in PBST) that recognizes amino acids 1204-1211 (596, CFFT, North Carolina Chapel Hill). Rabbit monoclonal anti-Na+K+ ATPase (Abcam) (1:50,000 in PBST) was used as a loading control. Secondary antibodies were anti-mouse (1:150,000 GE Healthcare) and anti-rabbit (1:100,000 GE Healthcare), respectively. Blots were exposed on film using ECL Primer Western Blotting Detection Reagent (GE Healthcare)
# WT CFTR-EMG-i14-i18, CFTR-EMG-i14-i18 harboring c.2988G>A, Flp-In-CFBE, and Flp-In-293 cells stably expressing WT-EMG and c.2988G>A EMG were generated. Both Flpin-293 and Flp-In-CFBE cells lack endogenous CFTR expression (CFBE41o-) and contain a single Flp recombinase target site. Co-transfection of EMG plasmid with pOG44 (a plasmid encoding Flp recombinase) allowed for genomic integration at the FRT site. Hygromycin was used for stable cell selection.
# CFTR protein levels was assessed in Flp-In-293 cells stably expressing the c.2988G>A splicing variant after treatment with Compound (I) for 5 days. […]
smiles,measurement,setting,value
"Clc1nc(NCc2ccncc2)c2cc[nH]c2n1 [Compound (I), 2-chloro-N-(pyridin-4-ylmethyl)-7H-pyrrolo[2,3-d]pyrimidin-4-amine]",ELP1 protein in tissues,[1],"increase of ELP1 protein in all tissues, including the brain"
same,increase of CFTR exon 18 inclusion,[2],10%
same,exon 17 splicing,[3],significantly promoted exon 17 inclusion
same,amount of mature CFTR protein,[4],~20 % of WT
